# Reference: the NIST ThermoML archive (doi:10.1021/acs.jced.6b00450)
# Numbers after ± are expanded uncertainties.
# Tests used:
# [1] = for viscosity / mass density: 101.33 kPa, Liquid; for viscosity: Concentric cylinders viscometry; for mass density: Vibrating tube method; for Glass transition temperature: DSC; for Normal melting temperature: Crystal, DTA
# [2] = refractive index (Na D-line) (dimensionless); conditions: 101.33 kPa, Liquid, Standard Abbe refractometry
Compound,viscosity ([1]; 303.15 K),mass density ([1]; 303.15 K),viscosity ([1]; 313.15 K),mass density ([1]; 313.15 K),viscosity ([1]; 323.15 K),mass density ([1]; 323.15 K),viscosity ([1]; 333.15 K),mass density ([1]; 333.15 K),viscosity ([1]; 343.15 K),mass density ([1]; 343.15 K),viscosity ([1]; 353.15 K),mass density ([1]; 353.15 K),Glass transition temperature [1],refractive index ([2]; 293.15 K),refractive index ([2]; 298.15 K),refractive index ([2]; 303.15 K),refractive index ([2]; 308.15 K),refractive index ([2]; 313.15 K),refractive index ([2]; 318.15 K),refractive index ([2]; 323.15 K),other results
Cc1ccc(S(=O)(=O)[O-])cc1.N#CCCn1cc[nH+]c1 [1-(2-cyanoethyl)imidazolium 4-methylbenzenesulfonate],24795 ± 2900 mPa·s,1266.3 ± 30 kg/m3,6910.9 ± 670 mPa·s,1259.6 ± 30 kg/m3,2376.6 ± 190 mPa·s,1253 ± 30 kg/m3,977.44 ± 67 mPa·s,1247.9 ± 30 kg/m3,459.63 ± 27 mPa·s,1241.2 ± 29 kg/m3,239.96 ± 13 mPa·s,1233.7 ± 29 kg/m3,-57.34 ± 2.1 °C,1.54509 ± 0.0072,1.54414 ± 0.0072,1.54297 ± 0.0072,1.54177 ± 0.0072,1.54051 ± 0.0072,1.53926 ± 0.0072,1.53798 ± 0.0072,viscosity ([1]; 363.15 K): 138.89 ± 6.7 mPa·s; mass density ([1]; 363.15 K): 1229.1 ± 29 kg/m3; viscosity ([1]; 373.15 K): 85.89 ± 4 mPa·s; mass density ([1]; 373.15 K): 1221.5 ± 28 kg/m3
CC(=O)[O-].N#CCCn1cc[nH+]c1 [1-(2-cyanoethyl)imidazolium acetate],55.28 ± 0.49 mPa·s,1120.5 ± 4.1 kg/m3,31.57 ± 0.3 mPa·s,1113 ± 4.1 kg/m3,19.79 ± 0.19 mPa·s,1105.2 ± 4.1 kg/m3,13.32 ± 0.13 mPa·s,1097.7 ± 4.1 kg/m3,9.483 ± 0.092 mPa·s,1089.8 ± 4.1 kg/m3,7.118 ± 0.069 mPa·s,1082 ± 4.1 kg/m3,-78.12 ± 2.1 °C,1.48534 ± 0.007,1.48368 ± 0.007,1.48197 ± 0.007,1.48025 ± 0.007,1.47851 ± 0.007,1.4768 ± 0.007,1.47508 ± 0.007,viscosity ([1]; 293.15 K): 108.22 ± 1.7 mPa·s; mass density ([1]; 293.15 K): 1127.7 ± 4.1 kg/m3; viscosity ([1]; 363.15 K): 5.294 ± 0.052 mPa·s; mass density ([1]; 363.15 K): 1073.2 ± 4.1 kg/m3; viscosity ([1]; 373.15 K): 4.252 ± 0.042 mPa·s; mass density ([1]; 373.15 K): 1062.2 ± 4.1 kg/m3
N#CCCn1cc[nH+]c1.O=S(=O)([O-])O [1-(2-cyanoethyl)imidazolium hydrogen sulfate],3102.2 ± 220 mPa·s,1423.3 ± 4 kg/m3,1397.9 ± 81 mPa·s,1417.4 ± 4 kg/m3,707.69 ± 33 mPa·s,1411.4 ± 4 kg/m3,394.22 ± 14 mPa·s,1405 ± 4 kg/m3,236.85 ± 6.5 mPa·s,1398.8 ± 4 kg/m3,151.62 ± 3 mPa·s,1393 ± 4 kg/m3,-49.71 ± 2.1 °C,1.5022 ± 0.007,1.50138 ± 0.007,1.50034 ± 0.007,1.49927 ± 0.007,1.49817 ± 0.007,1.49708 ± 0.007,1.49599 ± 0.007,viscosity ([1]; 293.15 K): 7937 ± 700 mPa·s; mass density ([1]; 293.15 K): 1429.4 ± 4 kg/m3; viscosity ([1]; 363.15 K): 102.28 ± 1.4 mPa·s; mass density ([1]; 363.15 K): 1385.9 ± 4 kg/m3; viscosity ([1]; 373.15 K): 72.1 ± 0.55 mPa·s; mass density ([1]; 373.15 K): 1378.6 ± 4 kg/m3
CS(=O)(=O)[O-].N#CCCn1cc[nH+]c1 [1-(2-cyanoethyl)imidazolium methanesulfonate],–,–,–,–,–,–,–,–,–,–,–,–,-59.40 ± 2.1 °C,1.50224 ± 0.007,1.50096 ± 0.007,1.49962 ± 0.007,1.49826 ± 0.007,1.49686 ± 0.007,1.49547 ± 0.007,1.49402 ± 0.007,–
N#CCCn1cc[nH+]c1.O=C([O-])C(F)(F)F [1-(2-cyanoethyl)imidazolium trifluoroacetate],–,–,–,–,–,–,–,–,–,–,–,–,–,–,–,–,–,–,–,–,Normal melting temperature [1]: -13.48 ± 2 °C
N#CCCn1cc[nH+]c1.O=S(=O)([O-])C(F)(F)F [1-(2-cyanoethyl)imidazolium trifluoromethanesulfonate],–,–,–,–,–,–,–,–,–,–,–,–,–,–,–,–,–,–,–,–,Normal melting temperature [1]: 99.67 ± 2 °C
Cn1ccnc1.O=S(=O)(O)O [1-methylimidazolium hydrogen sulfate],–,–,–,–,–,–,–,–,–,–,–,–,-73.49 ± 2.1 °C,1.48955 ± 0.007,1.48865 ± 0.007,1.48761 ± 0.007,1.48655 ± 0.007,1.48552 ± 0.007,1.48432 ± 0.007,1.48311 ± 0.007,Normal melting temperature [1]: 20.88 ± 2 °C
